In patent US20090099195A1 (ASTRAZENECA AB, priority 2007, published 2009):

Columns and labels:
[1] = target: T1, hP2X3 (human Purinergic P2X receptors subtype 3), clone B (Homo sapiens, UniProt P56373); experiment: hP2X3 FLIPR calcium (Fluo-4) antagonist assay, clone B; details: Human P2X3 FLIPR Clone B IC50 (nM), RLE cells expressing hP2X3 clone B (NM_002559); agonist 500 nM α,β-methylene-ATP
T1 sequence (P56373 1-397): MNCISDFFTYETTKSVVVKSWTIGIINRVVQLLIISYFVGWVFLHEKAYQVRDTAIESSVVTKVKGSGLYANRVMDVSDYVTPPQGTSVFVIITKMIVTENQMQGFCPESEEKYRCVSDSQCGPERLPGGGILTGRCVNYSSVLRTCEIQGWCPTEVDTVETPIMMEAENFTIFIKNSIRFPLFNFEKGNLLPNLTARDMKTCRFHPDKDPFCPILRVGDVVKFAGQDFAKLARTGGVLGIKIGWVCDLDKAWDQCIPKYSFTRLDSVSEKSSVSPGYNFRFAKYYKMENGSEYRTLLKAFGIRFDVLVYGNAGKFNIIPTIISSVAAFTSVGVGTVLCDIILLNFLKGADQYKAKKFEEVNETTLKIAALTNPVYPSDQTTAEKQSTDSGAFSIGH
Description: (§1) The assay used a calcium indicator dye (Fluo-4) that emits fluorescence, the intensity of which is related to the concentration of calcium that entered the cell when P2X3 was activated and the channel opened. Activation of hP2X3 or rat P2X3 and rat P2X2/3 (from the coexpression of rat P2X3 and rat P2×2) is elicited the by P2X3 agonist α,β methylene-ATP (Sigma M6517), and the resulting fluorescence is measured with a FLIPR II™ instrument (Molecular Devices). Compounds are tested for their ability to inhibit the agonist-induced fluorescent signal.
(§2) For the rat P2X2/3 HEK-TREX cells, induction of the rat P2X3 expression is used to generate the rat P2X2/3 channels in HEK-TREX cells and performed by addition of 1 μg/mL tetracycline (Invitrogen) 24 h prior to compounds testing to the HEK-TREX expressing the rat P2X2 constitutively. On the day of the experiment, the cells and test compounds are prepared as follows. […] After preparing the compounds, the medium is removed from the cell plates by inversion. A loading solution of 30 μL assay buffer containing 4 μM of the calcium indicator dye FLUO-4 AM (Molecular Probes F14202) is added to each well using a Multidrop (Labsystems). […] The incubation is terminated by washing the cells four times in assay buffer using a Skatron Embla (Molecular Devices), and 25 μL of assay buffer was left in each well. Cell plates are then transferred to the FLIPR. Experiments are initiated by measuring a baseline fluorescence reading for 10 seconds, followed by the addition of 12.5 μL of cpds and data sampling for a total 280 seconds. The experiments are terminated by addition of 12.5 μL of a reference agonist (500 nM α,β-methylene-ATP) or buffer, producing a final assay volume of 50 μL followed by data sampling for an additional 280 seconds.
(§3) In P2X3 antagonist experiments (human and rat assays) data are analysed as normalised maximal peak fluorescence monitored following agonist addition and calculated as percent of relative fluorescent counts from control agonist. The dose-response antagonist inhibition curves are analyzed in a 4-parameter sigmoidal fit using a non-linear curve-fitting program (XLfit version 5.0.6, ID Business Solutions Limited, Guildford, UK).

[2] = target: T2, rat P2X2/3 (rat P2X3 co-expressed with rat P2X2) (Rattus norvegicus, UniProt P49653+P49654); experiment: rat P2X2/3 FLIPR calcium (Fluo-4) antagonist assay; details: Rat P2X2/3 FLIPR Mean IC50 (nM), HEK-TREX cells, tetracycline-induced rat P2X3 with constitutive rat P2X2; agonist 500 nM α,β-methylene-ATP
T2 sequence (P49654 1-397): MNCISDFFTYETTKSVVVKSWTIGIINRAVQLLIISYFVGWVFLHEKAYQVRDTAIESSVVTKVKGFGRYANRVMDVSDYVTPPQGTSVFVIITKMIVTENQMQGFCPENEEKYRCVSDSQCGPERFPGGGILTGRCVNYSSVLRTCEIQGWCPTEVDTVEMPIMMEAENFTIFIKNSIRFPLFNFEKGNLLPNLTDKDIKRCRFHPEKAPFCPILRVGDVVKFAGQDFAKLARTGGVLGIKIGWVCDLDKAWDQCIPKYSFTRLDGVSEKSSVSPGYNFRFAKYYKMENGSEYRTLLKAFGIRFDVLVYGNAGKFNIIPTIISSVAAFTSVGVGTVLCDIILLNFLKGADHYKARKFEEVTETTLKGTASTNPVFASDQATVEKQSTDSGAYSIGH
T2 sequence (P49653 1-472): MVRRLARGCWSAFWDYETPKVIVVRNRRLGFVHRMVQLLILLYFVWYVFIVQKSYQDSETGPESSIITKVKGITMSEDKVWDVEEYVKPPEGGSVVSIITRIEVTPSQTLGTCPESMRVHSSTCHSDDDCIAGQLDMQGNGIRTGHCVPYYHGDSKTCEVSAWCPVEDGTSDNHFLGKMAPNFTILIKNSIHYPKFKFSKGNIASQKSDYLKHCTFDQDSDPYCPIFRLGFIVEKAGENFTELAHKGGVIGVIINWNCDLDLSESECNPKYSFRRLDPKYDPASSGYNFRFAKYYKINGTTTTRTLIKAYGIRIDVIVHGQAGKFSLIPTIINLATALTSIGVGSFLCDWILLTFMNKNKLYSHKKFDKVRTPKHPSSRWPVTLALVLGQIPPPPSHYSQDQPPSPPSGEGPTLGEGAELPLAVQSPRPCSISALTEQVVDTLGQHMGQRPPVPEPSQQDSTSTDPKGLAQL
Description: as §1, §2, §3

[3] = target: T3, hP2X3 (human Purinergic P2X receptors subtype 3), clone A (Homo sapiens, UniProt P56373); experiment: hP2X3 FLIPR calcium (Fluo-4) antagonist assay, clone A; details: Human P2X3 FLIPR Clone A Mean IC50 (nM), RLE cells expressing hP2X3 clone A (AB016608); agonist 500 nM α,β-methylene-ATP
T3 sequence (P56373 1-397): T1 sequence (P56373 1-397)

Row | IC50 [1] | IC50 [2] | IC50 [3] | SMILES
1 | 550 nM | 2530 nM |  | CC(=O)N1CCN(c2nc3c(c(N4CCCC4c4cnc5ccccc5c4)n2)CN(C(C)C)C3=O)CC1 (single isomer, unassigned) [Example 282, 4-(4-acetylpiperazin-1-yl)-8-propan-2-yl-2-(2-quinolin-3-ylpyrrolidin-1-yl)-3,5,8-triazabicyclo[4.3.0]nona-1,3,5-trien-7-one]
2 | 87 nM | 253 nM |  | CC(=O)N1CCN(c2nc3c(c(N4CCCC4c4cnc5ccccc5c4)n2)CN(C(C)C)C3=O)CC1 (single isomer, unassigned) [Example 283, 4-(4-acetylpiperazin-1-yl)-8-propan-2-yl-2-(2-quinolin-3-ylpyrrolidin-1-yl)-3,5,8-triazabicyclo[4.3.0]nona-1,3,5-trien-7-one]
3 | 53 nM | 1500 nM |  | COc1ccc(CC2CCCN2c2nc(N3CCN(C(C)=O)CC3)nc3c2CN(C(C)C)C3=O)cc1 (single isomer, unassigned) [Example 287, 2-(4-acetylpiperazin-1-yl)-6-isopropyl-4-[2-[(4-methoxyphenyl)methyl]pyrrolidin-1-yl]-5H-pyrrolo[3,4-d]pyrimidin-7-one]
4 | 35 nM | 234 nM |  | CC(=O)N1CCN(c2nc(N[C@H](C)c3cnc4ccccc4c3)c3c(n2)C(=O)N(C(C)C)C3)CC1 (single isomer, unassigned) [Example 344]
5 | 66 nM | 1910 nM |  | CC(=O)N1CCN(c2nc(N[C@@H](C)c3cnc4ccccc4c3)c3c(n2)C(=O)N(C(C)C)C3)CC1 (single isomer, unassigned) [Example 345]
6 | 34 nM | 3970 nM |  | CCC(C)N1Cc2c(NCc3cnn(-c4ccccc4)c3)nc(N3CCN(C(C)=O)CC3)nc2C1=O (single isomer, unassigned; (+)) [Example 306, (+)-4-(4-acetylpiperazin-1-yl)-8-butan-2-yl-2-[(1-phenylpyrazol-4-yl)methylamino]-3,5,8-triazabicyclo[4.3.0]nona-1,3,5-trien-7-one]
7 | 20 nM | 10300 nM |  | CCC(C)N1Cc2c(NCc3cnc4ccccc4c3)nc(N3CCN(C(C)=O)CC3)nc2C1=O (single isomer, unassigned; (+)) [Example 308, (+)-2-(4-acetylpiperazin-1-yl)-4-(3-quinolylmethylamino)-6-sec-butyl-5H-pyrrolo[3,4-d]pyrimidin-7-one]
8 |  | 2110 nM |  | CC(=O)N1CCN(c2nc(NC(c3ccccc3)c3ccccc3)c3c(n2)C(=O)N(C(C)C)C3)CC1 [Example 72, 2-(4-Acetyl-piperazin-1-yl)-4-(benzhydryl-amino)-6-isopropyl-5,6-dihydro-pyrrolo[3,4-d]pyrimidin-7-one]
9 |  | 7840 nM |  | COc1cc(OC(F)(F)F)ccc1CNc1nc(N2CCN(C(C)=O)CC2)nc2c1CN(C(C)C)C2=O [Example 232, 2-(4-acetylpiperazin-1-yl)-6-isopropyl-4-(2-methoxy-4-(trifluoromethoxy)benzylamino)-5H-pyrrolo[3,4-d]pyrimidin-7(6H)-one]
10 | 85 nM |  | 84.5 nM | CCOc1ccc([C@@H](C)N(C)c2nc(N3CCN(C(C)=O)CC3)nc3c2CN(C(C)C)C3=O)cc1F [Example 262, (R)-2-(4-acetylpiperazin-1-yl)-4-((1-(4-ethoxy-3-fluorophenyl)ethyl)(methyl)amino)-6-isopropyl-5H-pyrrolo[3,4-d]pyrimidin-7(6H)-one]
11 | 94 nM |  | 85 nM | CC(=O)N1CCN(c2nc3c(c(N(C)Cc4cc5ccccc5c(C)n4)n2)CN(C(C)C)C3=O)CC1 [Example 263, 2-(4-acetylpiperazin-1-yl)-6-isopropyl-4-(methyl((1-methylisoquinolin-3-yl)methyl)amino)-5H-pyrrolo[3,4-d]pyrimidin-7(6H)-one]
12 | 3600 nM |  | 4950 nM | CC(=O)N1CCN(c2nc3c(c(N4CCCC4c4ccc(F)cc4)n2)CN(C(C)C)C3=O)CC1 (stereo not shown) [Example 292, 2-(4-acetylpiperazin-1-yl)-4-[2-(4-fluorophenyl)pyrrolidin-1-yl]-6-(1-methylethyl)-5,6-dihydro-7H-pyrrolo[3,4-d]pyrimidin-7-one]
13 | 1400 nM |  | 1590 nM | COCc1ccc(CC2CCCN2c2nc(N3CCN(C(C)=O)CC3)nc3c2CN(C(C)C)C3=O)cc1 (stereo not shown) [Example 293, 2-(4-acetylpiperazin-1-yl)-4-{2-[4-(methoxymethyl)benzyl]pyrrolidin-1-yl}-6-(1-methylethyl)-5,6-dihydro-7H-pyrrolo[3,4-d]pyrimidin-7-one]
14 | 980 nM |  | 1840 nM | CC(=O)c1ccc(CC2CCCN2c2nc(N3CCN(C(C)=O)CC3)nc3c2CN(C(C)C)C3=O)cc1 (stereo not shown) [Example 294, 4-[2-(4-acetylbenzyl)pyrrolidin-1-yl]-2-(4-acetylpiperazin-1-yl)-6-(1-methylethyl)-5,6-dihydro-7H-pyrrolo[3,4-d]pyrimidin-7-one]
15 | 730 nM |  | 824 nM | COc1ccc(C2CCCN2c2nc(N3CCN(C(C)=O)CC3)nc3c2CN(C(C)C)C3=O)cc1C (stereo not shown) [Example 295, 2-(4-acetylpiperazin-1-yl)-4-[2-(4-methoxy-3-methylphenyl)pyrrolidin-1-yl]-6-(1-methylethyl)-5,6-dihydro-7H-pyrrolo[3,4-d]pyrimidin-7-one]
16 | 1400 nM |  | 1190 nM | CC(=O)N1CCN(c2nc3c(c(N4CCCC4c4ccc(C)cc4)n2)CN(C(C)C)C3=O)CC1 (stereo not shown) [Example 296, 2-(4-acetylpiperazin-1-yl)-6-(1-methylethyl)-4-[2-(4-methylphenyl)pyrrolidin-1-yl]-5,6-dihydro-7H-pyrrolo[3,4-d]pyrimidin-7-one]
17 | 300 nM |  | 322 nM | CC(=O)N1CCN(c2nc3c(c(N4CCCC4c4ccc(Cl)c(Cl)c4)n2)CN(C(C)C)C3=O)CC1 (stereo not shown) [Example 297, 2-(4-acetylpiperazin-1-yl)-4-[2-(3,4-dichlorophenyl)pyrrolidin-1-yl]-6-(1-methylethyl)-5,6-dihydro-7H-pyrrolo[3,4-d]pyrimidin-7-one]
18 | 28 nM |  | 35.5 nM | CC[C@H](C)N1Cc2c(NCc3cnc4ccccc4c3)nc(N3CCN(C(C)=O)CC3)nc2C1=O [Example 316, 2-(4-acetylpiperazin-1-yl)-6-[(1S)-1-methylpropyl]-4-[(quinolin-3-ylmethyl)amino]-5,6-dihydro-7H-pyrrolo[3,4-d]pyrimidin-7-one]
19 | 47 nM |  | 53.6 nM | CC[C@H](C)N1Cc2c(nc(N3CCN(C(C)=O)CC3)nc2N(C)Cc2cnc3ccccc3c2)C1=O [Example 319, 2-(4-acetylpiperazin-1-yl)-6-[(1S)-1-methylpropyl]-4-[methyl(quinolin-3-ylmethyl)amino]-5,6-dihydro-7H-pyrrolo[3,4-d]pyrimidin-7-one]
20 | 54 nM |  | 69.1 nM | CCOc1ccc([C@@H](C)Nc2nc(N3CCN(C(C)=O)CC3)nc3c2CN([C@@H](C)CC)C3=O)cc1F [Example 320, 2-(4-acetylpiperazin-1-yl)-4-{[(1R)-1-(4-ethoxy-3-fluorophenyl)ethyl]amino}-6-[(1S)-1-methylpropyl]-5,6-dihydro-7H-pyrrolo[3,4-d]pyrimidin-7-one]
21 | 3300 nM |  | 1940 nM | CC(=O)N1CCN(c2nc(N[C@H](C)c3ccc(C#N)cc3)c3c(n2)C(=O)N(C(C)C)C3)CC1 [Example 351, (R)-4-(1-(2-(4-acetylpiperazin-1-yl)-6-isopropyl-7-oxo-6,7-dihydro-5H-pyrrolo[3,4-d]pyrimidin-4-ylamino)ethyl)benzonitrile]
